Experiments:
[1] = Pharmacokinetic study in plasma after oral hexanic extract of Tagetes lucida, healthy and LPS-damaged mice; assay type: in vivo, ICR mice; details: for Cmax / AUC(0-inf) / MRT / Tmax / half-life / AUC(0-t): ICR, mouse, po, 10 mg/kg; for Cmax / AUC(0-inf) / MRT / Tmax / half-life / AUC(0-t) / Cl/F: plasma, 10 mg/kg oral hexanic extract, mean ± SEM (n = 5); for Cmax: non-compartmental; for AUC(0-t): to 6 h
Procedure: The optimized HPLC-validated method for the quantification of coumarins present in the hexane extract of T. lucida was used to evaluate the concentration profiles over time in the plasma, brain, kidney, and spleen biological matrices after an oral administration of 10 mg/kg of the extract.
Blood samples were obtained from the retro-orbital sinus of mice and collected in heparinized tubes. Plasma was separated by centrifugation at 3500 rpm for 5 min and stored in new Eppendorf tubes at −70 °C, until further processing.
(§1) One hundred microliters of plasma and organs samples, spiked with calibration and QC concentration or samples from the pharmacokinetic study, were mixed with 300 µL of acetonitrile containing the IS at 10 µg/mL for protein precipitation, and vortexed for 3 min. Then, 200 µL of dichloromethane were added, for liquid–liquid extraction of the bioactive compounds, and vortexed for 5 min. The mixture was centrifuged at 14,000 rpm for 10 min, and the extracted organic layers were placed in new tubes, until completely dry at room temperature. For quantitative analysis, samples were resuspended in 100 µL of methanol, transferred to sampling vials, and injected into the chromatographic system, described below.
A pharmacokinetic study was carried out in sixty mice, divided in six subgroups, according to sample collection times. An acute inflammation process by the intraperitoneal (i.p.) administration of LPS at 2 mg/kg was induced in half of the mice per group, while the other half received an i.p. injection of saline solution. Ten min after the damage was induced, the mice were administered with an oral dose of 10 mg/kg of the bioactive fraction dissolved in a 1% Tween-20 aqueous solution. Blood and tissue samples were obtained and processed at 0, 0.25, 0.75, 1.5, 2, 4, and 6 h post-dosing, as indicated in the “Samples collection” and “Plasma and tissue samples processing” sections.
Pharmacokinetic parameters of PE, SC, DF, HR, and PU in plasma were calculated by PKSolver software.

[2] = Tissue distribution in the brain after oral hexanic extract of Tagetes lucida, healthy and LPS-administrated mice; assay type: in vivo, ICR mice; details: after the initial absorption process
Procedure: After blood sampling, the mice were sacrificed in a chamber with chloroform by an overdose of anesthesia. The brain, kidney, and spleen were quickly removed and rinsed with saline solution, fresh weight was recorded, and immediately placed on ice. Subsequently, the organs were freeze-dried, grounded, and weighted. The lyophilized organs were individually suspended in methanol in a 1:1 volume: dry weight ratio for 24 h, then sonicated for 5 min and centrifuged at 14,000 rpm for 7 min. The supernatants were recovered in clean tubes and stored at −70 °C until their use.
as §1
A pharmacokinetic study was carried out in sixty mice, divided in six subgroups, according to sample collection times. An acute inflammation process by the intraperitoneal (i.p.) administration of LPS at 2 mg/kg was induced in half of the mice per group, while the other half received an i.p. injection of saline solution. Ten min after the damage was induced, the mice were administered with an oral dose of 10 mg/kg of the bioactive fraction dissolved in a 1% Tween-20 aqueous solution. […]
To evaluate the distribution in the tissues, bioactive coumarins were quantified in the lyophilized organs, and concentrations were adjusted to the volumes of liquid obtained by the difference between the dry and fresh weights of each tissue to simulate a distribution approximation of the compounds by tissue system.

[3] = Stability of the analytes in spiked plasma, brain, kidney and spleen matrices (autosampler, long-term, freeze-thaw); assay type: physicochemical, mice; details: for Stability Autosampler RE (%): processed samples in autosampler vials 24 h room temperature; for Stability Freeze-Thaw RE (%): three cycles (−4 °C to 25 °C); for Stability Long-Term RE (%): −70 °C for 30 days
Procedure: The stability of the compounds obtained from each enriched matrices at the QC concentrations was evaluated under different conditions that covered the processing, handling, and storage phases that could be developed throughout the study.
Individual stock solutions of PE, SC, DF, HR, PU, and rutin (IS) were prepared separately in methanol (1 mg/mL) and stored at −4 °C until use. From the stocks, a working solution in methanol was prepared at a concentration of 200 µg/mL of each coumarin. Blank plasma or organs supernatant samples (80 µL) were spiked with 20 µL of serial dilutions of working solution to obtain calibration curves ranging between 0.156, 0.312, 0.625, 1.25, 2.5, 5, 10, 20, and 40 µg/mL of each coumarin. Quality control (QC) samples were prepared at three levels of 0.3 (low), 3 (medium), and 30 (high) µg/mL for each coumarin.
The stability of the analytes in plasma, brain, kidneys, and spleen was evaluated by the analyzed concentrations of QC subjected to three different conditions. Short-term stability was determined by analysis of samples processed in the autosampler vials at 24 h at room temperature. Long-term stability was tested on samples stored at −70 °C for 30 days. Freeze-thaw stability was determined after three cycles (−4 °C to 25 °C) on three consecutive days.

[4] = LPS-damaged ICR mice (LPS 2 mg/kg i.p.)

## COc1cc2ccc(=O)oc2cc1OCC=C(C)C [PE, 7-O-prenylscopoletin]
[1]; [4]
  Cmax: 1.77 ± 0.31 µg/mL
[1]; LPS-damaged ICR mice
  AUC(0-inf): 6.37 ± 1.2 µg·h/mL
  MRT: 6.96 ± 1.92 h
  Tmax: 0.85 ± 0.28 h
  half-life: 4.48 ± 1.31 h
  AUC(0-t): 3.52 ± 0.1 µg·h/mL
  Cl/F: 17.38 ± 2.25 (mg/kg)/(μg/mL)/h
[1]; healthy ICR mice
  AUC(0-inf): 1.7 ± 0.31 µg·h/mL
  MRT: 3.04 ± 0.45 h
  Tmax: 1.55 ± 0.34 h
  half-life: 1.86 ± 0.55 h
  Cmax: 0.93 ± 0.29 µg/mL
  AUC(0-t): 1.56 ± 0.35 µg·h/mL
  Cl/F: 65.83 ± 10.18 (mg/kg)/(μg/mL)/h
[2]
  time at which the highest concentration in the brain tissue is reached: 15 min
[3]; brain, nominal 0.3 µg/mL
  Stability Autosampler RE (%): -2.37%
  Stability Freeze-Thaw RE (%): -1.15%
  Stability Long-Term RE (%): -0.63%
[3]; brain, nominal 3.0 µg/mL
  Stability Autosampler RE (%): -0.34%
  Stability Freeze-Thaw RE (%): -2.34%
  Stability Long-Term RE (%): -3.44%
[3]; brain, nominal 30.0 µg/mL
  Stability Autosampler RE (%): 4.05%
  Stability Freeze-Thaw RE (%): -1.25%
  Stability Long-Term RE (%): -3.82%
[3]; kidney, nominal 0.3 µg/mL
  Stability Autosampler RE (%): 7.06%
  Stability Freeze-Thaw RE (%): 2.26%
  Stability Long-Term RE (%): 3.02%
[3]; kidney, nominal 3.0 µg/mL
  Stability Autosampler RE (%): 3.99%
  Stability Freeze-Thaw RE (%): 0.91%
  Stability Long-Term RE (%): 2.69%
[3]; kidney, nominal 30.0 µg/mL
  Stability Autosampler RE (%): 1.61%
  Stability Freeze-Thaw RE (%): 1.12%
  Stability Long-Term RE (%): 7.34%
[3]; plasma, nominal 0.3 µg/mL
  Stability Autosampler RE (%): -4.00%
  Stability Freeze-Thaw RE (%): 2.80%
  Stability Long-Term RE (%): -6.86%
[3]; plasma, nominal 3.0 µg/mL
  Stability Autosampler RE (%): 11.12%
  Stability Freeze-Thaw RE (%): -2.01%
  Stability Long-Term RE (%): -4.44%
[3]; plasma, nominal 30.0 µg/mL
  Stability Autosampler RE (%): 8.22%
  Stability Freeze-Thaw RE (%): -5.55%
  Stability Long-Term RE (%): -5.20%
[3]; spleen, nominal 0.3 µg/mL
  Stability Autosampler RE (%): -5.98%
  Stability Freeze-Thaw RE (%): 2.50%
  Stability Long-Term RE (%): 1.51%
[3]; spleen, nominal 3.0 µg/mL
  Stability Autosampler RE (%): -10.42%
  Stability Freeze-Thaw RE (%): 4.42%
  Stability Long-Term RE (%): 3.67%
[3]; spleen, nominal 30.0 µg/mL
  Stability Autosampler RE (%): -1.02%
  Stability Freeze-Thaw RE (%): 2.38%
  Stability Long-Term RE (%): 2.78%

## CC(C)=CCOc1ccc2ccc(=O)oc2c1 [PU, 7-O-prenylumbelliferone]
[1]; [4]
  Cmax: 0.69 ± 0.07 µg/mL
[1]; LPS-damaged ICR mice
  AUC(0-inf): 2.24 ± 0.26 µg·h/mL
  MRT: 2.68 ± 0.14 h
  Tmax: 1.05 ± 0.31 h
  half-life: 0.95 ± 0.1 h
  AUC(0-t): 2.22 ± 0.26 µg·h/mL
  Cl/F: 46.95 ± 5.03 (mg/kg)/(μg/mL)/h
[1]; healthy ICR mice
  AUC(0-inf): 1.52 ± 0.12 µg·h/mL
  MRT: 2.15 ± 0.11 h
  Tmax: 1.55 ± 0.23 h
  half-life: 0.92 ± 0.06 h
  Cmax: 0.56 ± 0.05 µg/mL
  AUC(0-t): 1.49 ± 0.11 µg·h/mL
  Cl/F: 67.37 ± 5.33 (mg/kg)/(μg/mL)/h
[1]; LPS-treated mice, Figure 3e
  time of concentration peak in plasma after administration of the extract: up to 4 h
[2]
  time at which the highest concentration in the brain tissue is reached: 15 min
[3]; brain, nominal 0.3 µg/mL
  Stability Autosampler RE (%): 2.13%
  Stability Freeze-Thaw RE (%): -6.54%
  Stability Long-Term RE (%): 3.45%
[3]; brain, nominal 3.0 µg/mL
  Stability Autosampler RE (%): 1.80%
  Stability Freeze-Thaw RE (%): -4.49%
  Stability Long-Term RE (%): -5.42%
[3]; brain, nominal 30.0 µg/mL
  Stability Autosampler RE (%): 4.57%
  Stability Freeze-Thaw RE (%): -1.74%
  Stability Long-Term RE (%): -4.61%
[3]; kidney, nominal 0.3 µg/mL
  Stability Autosampler RE (%): 7.10%
  Stability Freeze-Thaw RE (%): 3.61%
  Stability Long-Term RE (%): 5.54%
[3]; kidney, nominal 3.0 µg/mL
  Stability Autosampler RE (%): 5.21%
  Stability Freeze-Thaw RE (%): 2.01%
  Stability Long-Term RE (%): 8.68%
[3]; kidney, nominal 30.0 µg/mL
  Stability Autosampler RE (%): 1.66%
  Stability Freeze-Thaw RE (%): -1.02%
  Stability Long-Term RE (%): 6.46%
[3]; plasma, nominal 0.3 µg/mL
  Stability Autosampler RE (%): -6.02%
  Stability Freeze-Thaw RE (%): -9.54%
  Stability Long-Term RE (%): -8.22%
[3]; plasma, nominal 3.0 µg/mL
  Stability Autosampler RE (%): -11.68%
  Stability Freeze-Thaw RE (%): -9.78%
  Stability Long-Term RE (%): -10.56%
[3]; plasma, nominal 30.0 µg/mL
  Stability Autosampler RE (%): -9.86%
  Stability Freeze-Thaw RE (%): -5.10%
  Stability Long-Term RE (%): -4.81%
[3]; spleen, nominal 0.3 µg/mL
  Stability Autosampler RE (%): -0.09%
  Stability Freeze-Thaw RE (%): -8.53%
  Stability Long-Term RE (%): -6.92%
[3]; spleen, nominal 3.0 µg/mL
  Stability Autosampler RE (%): -4.98%
  Stability Freeze-Thaw RE (%): 2.88%
  Stability Long-Term RE (%): 7.56%
[3]; spleen, nominal 30.0 µg/mL
  Stability Autosampler RE (%): -2.63%
  Stability Freeze-Thaw RE (%): 2.27%
  Stability Long-Term RE (%): 4.26%

— PMC9656319, “Pharmacokinetics and Tissue Distribution of Coumarins from Tagetes lucida in an LPS-Induced Neuroinflammation Model” (Plants, 2022)
